Test results: PubChem BioAssay (NCI)
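In this assay, cells in 96-well plates receive the compound at five concentrations for 48 hours. Endpoints are linearly interpolated between the surrounding concentrations. Abbreviation: GI50, concentration required for 50% inhibition of growth. TGI denotes the concentration required for complete inhibition of growth.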

Columns and labels:
Test in all cases: NCI tumour cell line growth inhibition, 48 h
[1] = system: SF-539 CNS
[2] = system: UACC-62 melanoma
[3] = system: KM12 colon
[4] = system: OVCAR-5 ovarian
[5] = system: SW-620 colon
[6] = system: MALME-3M melanoma
[7] = system: SN12C renal
[8] = system: BT-549 breast
[9] = system: MCF7 breast
[10] = system: TK-10 renal
[11] = system: DU-145 prostate
[12] = system: OVCAR-8 ovarian
[13] = system: HL-60(TB) leukemia
[14] = system: HCT-116 colon
[15] = system: HOP-92 NSCLC
[16] = system: NCI-H226 lung
[17] = system: LOX IMVI melanoma
[18] = system: MDA-MB-231 breast
[19] = system: ACHN renal
[20] = system: M14 melanoma
[21] = system: CCRF-CEM leukemia
[22] = system: HT29 colon
[23] = system: SF-295 CNS
[24] = system: HOP-62 NSCLC
[25] = system: SR leukemia
[26] = system: HS 578T breast
[27] = system: OVCAR-3 ovarian
[28] = system: EKVX NSCLC
[29] = system: 786-0 renal
[30] = system: T-47D breast
[31] = system: U251 CNS
[32] = system: MDA-MB-435
[33] = system: SF-268 CNS
[34] = system: PC-3 prostate
[35] = system: HCT-15 colon
[36] = system: K-562 leukemia
[37] = system: NCI-H522 lung
[38] = system: HCC-2998 colon
[39] = system: SK-MEL-28 melanoma
[40] = system: RPMI-8226 leukemia
[41] = system: RXF 393 renal
[42] = system: OVCAR-4 ovarian
[43] = system: SK-OV-3 ovarian
[44] = system: UO-31 renal
[45] = system: NCI-H460 lung
[46] = system: CAKI-1 renal
[47] = system: A549 NSCLC
[48] = system: NCI-H23 lung
[49] = system: SNB-75 CNS
[50] = system: IGROV1 ovarian
[51] = system: A498 renal
[52] = system: MOLT-4 leukemia
[53] = system: COLO 205 colon
[54] = system: NCI/ADR-RES ovarian
[55] = system: UACC-257 melanoma
[56] = system: SNB-19 CNS
[57] = system: SK-MEL-2 melanoma
[58] = system: SK-MEL-5 melanoma

## Cc1nc2cnc(N)c(C#Cc3cncc(C(=O)Nc4ccc(Cl)c(C(F)(F)F)c4)c3)c2nc1C
[1]
  GI50: 0.518 µM
  TGI: 10.2 µM
[2]
  GI50: 0.264 µM
  TGI: 2.15 µM
[3]
  TGI: 3.53 µM
[4]
  GI50: 0.383 µM
  TGI: 11.3 µM
[5]
  GI50: 0.891 µM
  TGI: 11.2 µM
[6]
  GI50: 0.118 µM
  TGI: 0.825 µM
[7]
  GI50: 1.16 µM
  TGI: 4 µM
[8]
  GI50: 1.99 µM
  TGI: 6.64 µM
[9]
  GI50: 1.91 µM
  TGI: 6.84 µM
[10]
  GI50: 5.32 µM
  TGI: 18.9 µM
[11]
  GI50: 2.93 µM
  TGI: 13.3 µM
[12]
  GI50: 4.45 µM
  TGI: 24.5 µM
[13]
  GI50: 0.0754 µM
  TGI: 4.12 µM
[14]
  GI50: 0.249 µM
  TGI: 2.11 µM
[15]
  GI50: 0.196 µM
  TGI: 1.78 µM
[16]
  GI50: 0.555 µM
  TGI: 9.79 µM
[17]
  GI50: 0.257 µM
  TGI: 1.43 µM
[18]
  GI50: 0.308 µM
  TGI: 5.09 µM
[19]
  GI50: 1.89 µM
  TGI: 12.1 µM
[20]
  GI50: 0.243 µM
  TGI: 1.85 µM
[21]
  GI50: 3.75 µM
  TGI: 52.8 µM
[22]
  GI50: 0.346 µM
  TGI: 2.11 µM
[23]
  GI50: 3.44 µM
  TGI: 18.8 µM
[24]
  GI50: 1.87 µM
  TGI: 18.7 µM
[25]
  GI50: 1.71 µM
  TGI: 5.02 µM
[26]
  GI50: 1.64 µM
  TGI: 7.19 µM
[27]
  GI50: 3.33 µM
  TGI: 12.7 µM
[28]
  GI50: 2.48 µM
  TGI: 19.1 µM
[29]
  GI50: 3.41 µM
  TGI: 17.9 µM
[30]
  GI50: 5.02 µM
  TGI: 27.6 µM
[31]
  GI50: 2.88 µM
  TGI: 16.9 µM
[32]
  GI50: 0.442 µM
  TGI: 4.06 µM
[33]
  GI50: 2.46 µM
  TGI: 15.6 µM
[34]
  GI50: 3.9 µM
  TGI: 18.7 µM
[35]
  GI50: 1.55 µM
  TGI: 4.03 µM
[36]
  GI50: 0.168 µM
  TGI: > 100 µM
[37]
  GI50: 1.8 µM
  TGI: 14.8 µM
[38]
  GI50: 0.771 µM
  TGI: 4.35 µM
[39]
  GI50: 0.264 µM
  TGI: 1.68 µM
[40]
  GI50: 3.32 µM
  TGI: 22.5 µM
[41]
  GI50: 0.799 µM
  TGI: 4.23 µM
[42]
  GI50: 4.01 µM
  TGI: 17 µM
[43]
  GI50: 9.11 µM
  TGI: 23.3 µM
[44]
  GI50: 0.381 µM
  TGI: 10.9 µM
[45]
  GI50: 2.3 µM
  TGI: 10.2 µM
[46]
  GI50: 2.26 µM
  TGI: 15.6 µM
[47]
  GI50: 3.27 µM
  TGI: 22.6 µM
[48]
  GI50: 0.579 µM
  TGI: 5.4 µM
[49]
  GI50: 2.43 µM
  TGI: 11.8 µM
[50]
  GI50: 0.653 µM
  TGI: 12.6 µM
[51]
  GI50: 3.1 µM
  TGI: 15.4 µM
[52]
  GI50: 1.68 µM
  TGI: 5.82 µM
[53]
  GI50: 0.442 µM
  TGI: 9.17 µM
[54]
  GI50: 2.95 µM
  TGI: 19.1 µM
[55]
  GI50: 0.519 µM
  TGI: 9.65 µM
[56]
  GI50: 6.53 µM
  TGI: 20.7 µM
[57]
  GI50: 0.328 µM
  TGI: 1.89 µM
[58]
  GI50: 1.08 µM
  TGI: 11.1 µM
